# Laboratory results from PubChem BioAssay AID270 (DTP/NCI, 2004).
# Where “and” joins values, the source holds several entries; their conditions need not be identical. Equal values may be shown once. Records with an inconclusive call do not appear.
# System: BDF1 mice, s.c. Lewis lung carcinoma, T/C %
# Test: NCI In Vivo Anticancer Drug Screen. Data for tumor model Lewis Lung Carcinoma (subcutaneous) in B6D2F1 (BDF1) mice
# How it was run: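 First, mice carry a transplantable tumor. Next, groups receive either compound or vehicle. Finally, survival or tumor dimensions in the dosed animals are divided by the corresponding control figure.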
# [1] = endpoint: median survival time, dose: 0.25 mg/kg/injection, schedule: Q01DX009 (ip), vehicle: Klucel (hydroxypropylcellulose) (HPC), higher = longer survival
# [2] = endpoint: median survival time, dose: 0.5 mg/kg/injection, schedule: Q01DX009 (ip), vehicle: Klucel (hydroxypropylcellulose) (HPC), higher = longer survival
# [3] = endpoint: median survival time, dose: 0.5 mg/kg/injection, schedule: Q01DX009 (ip), vehicle: saline, higher = longer survival
# [4] = endpoint: median survival time, dose: 1.0 mg/kg/injection, schedule: Q01DX009 (ip), vehicle: Klucel (hydroxypropylcellulose) (HPC), higher = longer survival
# [5] = endpoint: median survival time, dose: 1.0 mg/kg/injection, schedule: Q01DX009 (ip), vehicle: saline with Tween-80, higher = longer survival
# [6] = endpoint: median survival time, dose: 1.0 mg/kg/injection, schedule: Q01DX009 (ip), vehicle: saline, higher = longer survival
# [7] = endpoint: median survival time, dose: 2.0 mg/kg/injection, schedule: Q01DX009 (ip), vehicle: saline with Tween-80, higher = longer survival
# [8] = endpoint: median survival time, dose: 2.0 mg/kg/injection, schedule: Q01DX009 (ip), vehicle: saline, higher = longer survival
# [9] = endpoint: median survival time, dose: 4.0 mg/kg/injection, schedule: Q01DX009 (ip), vehicle: other, higher = longer survival
compound,measurement,setting,value
C#C[C@]1(O)CC[C@H]2[C@@H]3CCc4cc(O)ccc4[C@H]3CC[C@@]21C,T/C,"endpoint: median survival time, dose: 1.25 mg/kg/injection, schedule: Q02DX009 (ip), vehicle: Klucel (hydroxypropylcellulose) (HPC), higher = longer survival",88 % of control
same,T/C,"endpoint: median survival time, dose: 2.5 mg/kg/injection, schedule: Q02DX009 (ip), vehicle: Klucel (hydroxypropylcellulose) (HPC), higher = longer survival",92 % of control
same,T/C,"endpoint: median survival time, dose: 5.0 mg/kg/injection, schedule: Q02DX009 (ip), vehicle: Klucel (hydroxypropylcellulose) (HPC), higher = longer survival",96 % of control
same,T/C,"endpoint: median survival time, dose: 10.0 mg/kg/injection, schedule: Q02DX009 (ip), vehicle: Klucel (hydroxypropylcellulose) (HPC), higher = longer survival",91 % of control and 101 % of control
same,T/C,"endpoint: median survival time, dose: 20.0 mg/kg/injection, schedule: Q02DX009 (ip), vehicle: Klucel (hydroxypropylcellulose) (HPC), higher = longer survival",104 % of control
same,T/C,"endpoint: median survival time, dose: 40.0 mg/kg/injection, schedule: Q02DX009 (ip), vehicle: Klucel (hydroxypropylcellulose) (HPC), higher = longer survival",108 % of control and 120 % of control
O=C1c2ccccc2C(=O)c2c(NCCNCCO)ccc(NCCNCCO)c21,T/C,[1],120 % of control
same,T/C,"endpoint: median survival time, dose: 0.25 mg/kg/injection, schedule: Q01DX009 (ip), vehicle: water, higher = longer survival",106 % of control
same,T/C,[2],123 % of control
same,T/C,"endpoint: median survival time, dose: 0.5 mg/kg/injection, schedule: Q01DX009 (ip), vehicle: saline with Tween-80, higher = longer survival",86 % of control
same,T/C,[3],114 % of control
same,T/C,"endpoint: median survival time, dose: 0.5 mg/kg/injection, schedule: Q01DX009 (ip), vehicle: water, higher = longer survival",109 % of control
same,T/C,[4],101 % of control
same,T/C,[5],115 % of control
same,T/C,[6],92 % of control and 94 % of control and 108 % of control
same,T/C,"endpoint: median survival time, dose: 1.0 mg/kg/injection, schedule: Q01DX009 (ip), vehicle: water, higher = longer survival",89 % of control
same,T/C,"endpoint: median survival time, dose: 2.0 mg/kg/injection, schedule: Q01DX009 (ip), vehicle: Klucel (hydroxypropylcellulose) (HPC), higher = longer survival",89 % of control
same,T/C,"endpoint: median survival time, dose: 2.0 mg/kg/injection, schedule: Q01DX009 (ip), vehicle: acid diluted with saline, higher = longer survival",89 % of control
same,T/C,[7],95 % of control
same,T/C,[8],102 % of control
same,T/C,"endpoint: median survival time, dose: 2.0 mg/kg/injection, schedule: Q01DX009 (ip), vehicle: water, higher = longer survival",96 % of control and 115 % of control
same,T/C,"endpoint: median survival time, dose: 4.0 mg/kg/injection, schedule: Q01DX009 (ip), vehicle: acid diluted with saline, higher = longer survival",95 % of control
same,T/C,[9],106 % of control
same,T/C,"endpoint: median survival time, dose: 4.0 mg/kg/injection, schedule: Q01DX009 (ip), vehicle: saline, higher = longer survival",91 % of control
same,T/C,"endpoint: median survival time, dose: 4.0 mg/kg/injection, schedule: Q01DX009 (ip), vehicle: water, higher = longer survival",88 % of control and 105 % of control
same,T/C,"endpoint: median survival time, dose: 8.0 mg/kg/injection, schedule: Q01DX009 (ip), vehicle: Klucel (hydroxypropylcellulose) (HPC), higher = longer survival",109 % of control and 120 % of control
same,T/C,"endpoint: median survival time, dose: 8.0 mg/kg/injection, schedule: Q01DX009 (ip), vehicle: acid diluted with saline, higher = longer survival",90 % of control
same,T/C,"endpoint: median survival time, dose: 8.0 mg/kg/injection, schedule: Q01DX009 (ip), vehicle: other, higher = longer survival",103 % of control
same,T/C,"endpoint: median survival time, dose: 8.0 mg/kg/injection, schedule: Q01DX009 (ip), vehicle: saline, higher = longer survival",95 % of control
same,T/C,"endpoint: median survival time, dose: 8.0 mg/kg/injection, schedule: Q01DX009 (ip), vehicle: water, higher = longer survival",88 % of control
same,T/C,"endpoint: median survival time, dose: 10.0 mg/kg/injection, schedule: Q## X004 (ip), vehicle: saline, higher = longer survival",97 % of control
same,T/C,"endpoint: median survival time, dose: 16.0 mg/kg/injection, schedule: Q01DX009 (ip), vehicle: Klucel (hydroxypropylcellulose) (HPC), higher = longer survival",107 % of control
same,T/C,"endpoint: median survival time, dose: 16.0 mg/kg/injection, schedule: Q01DX009 (ip), vehicle: acid diluted with saline, higher = longer survival",100 % of control
same,T/C,"endpoint: median survival time, dose: 16.0 mg/kg/injection, schedule: Q01DX009 (ip), vehicle: saline, higher = longer survival",99 % of control
same,T/C,"endpoint: median survival time, dose: 16.0 mg/kg/injection, schedule: Q01DX009 (ip), vehicle: water, higher = longer survival",102 % of control
same,T/C,"endpoint: median survival time, dose: 20.0 mg/kg/injection, schedule: Q## X004 (ip), vehicle: saline, higher = longer survival",93 % of control
same,T/C,"endpoint: median survival time, dose: 40.0 mg/kg/injection, schedule: Q## X004 (ip), vehicle: saline, higher = longer survival",93 % of control
O=[N+]([O-])c1ccccc1CSc1ncnc2nc[nH]c12,T/C,"endpoint: mean tumor weight, dose: 15.6 mg/kg/injection, schedule: Q01DX011 (ip), vehicle: other, higher = larger tumour",38 % of control
same,T/C,"endpoint: mean tumor weight, dose: 31.3 mg/kg/injection, schedule: Q01DX011 (ip), vehicle: other, higher = larger tumour",86 % of control
same,T/C,"endpoint: mean tumor weight, dose: 62.5 mg/kg/injection, schedule: Q01DX011 (ip), vehicle: other, higher = larger tumour",82 % of control
same,T/C,"endpoint: mean tumor weight, dose: 125.0 mg/kg/injection, schedule: Q01DX011 (ip), vehicle: other, higher = larger tumour",41 % of control
CC[C@H]1CN2CCc3cc(OC)c(OC)cc3[C@@H]2C[C@@H]1C[C@H]1NCCc2c1[nH]c1ccc(O)cc21,T/C,[1],103 % of control
same,T/C,[2],93 % of control
same,T/C,[4],90 % of control
O=C(O)CCCc1ccc(N(CCCl)CCCl)cc1,T/C,"endpoint: mean tumor weight, dose: 3.13 mg/kg/injection, schedule: Q01DX011 (ip), vehicle: saline, higher = larger tumour",66 % of control
same,T/C,"endpoint: mean tumor weight, dose: 6.25 mg/kg/injection, schedule: Q01DX011 (ip), vehicle: saline, higher = larger tumour",54 % of control
same,T/C,"endpoint: mean tumor weight, dose: 7.5 mg/kg/injection, schedule: Q01DX011 (ip), vehicle: carboxymethylcellulose (CMC), higher = larger tumour",55 % of control
same,T/C,"endpoint: mean tumor weight, dose: 12.5 mg/kg/injection, schedule: Q01DX011 (ip), vehicle: saline, higher = larger tumour",26 % of control
same,T/C,[5],113 % of control
same,T/C,[7],101 % of control and 124 % of control
same,T/C,"endpoint: median survival time, dose: 4.0 mg/kg/injection, schedule: Q01DX001 (ip), vehicle: saline with Tween-80, higher = longer survival",94 % of control
same,T/C,"endpoint: median survival time, dose: 8.0 mg/kg/injection, schedule: Q01DX001 (ip), vehicle: saline with Tween-80, higher = longer survival",112 % of control
same,T/C,"endpoint: median survival time, dose: 8.0 mg/kg/injection, schedule: Q01DX009 (ip), vehicle: saline with Tween-80, higher = longer survival",110 % of control and 114 % of control
same,T/C,"endpoint: median survival time, dose: 16.0 mg/kg/injection, schedule: Q01DX001 (ip), vehicle: saline with Tween-80, higher = longer survival",107 % of control
same,T/C,"endpoint: median survival time, dose: 32.0 mg/kg/injection, schedule: Q01DX001 (ip), vehicle: saline with Tween-80, higher = longer survival",89 % of control
COc1ccc(CC2C(=O)NC(C)C(=O)N(C)C3C(=O)N(C)C(Cc4ccc(O)c(c4)Oc4ccc(cc4)C3O)C(=O)NC(C)C(=O)NC(C)C(=O)N2C)cc1 (stereo not drawn),T/C,"endpoint: median survival time, dose: 0.25 mg/kg/injection, schedule: Q01DX009 (ip), vehicle: saline, higher = longer survival",96 % of control
same,T/C,[3],97 % of control
same,T/C,[6],113 % of control
same,T/C,[8],87 % of control
Cc1ccc(NC(=O)N(CCBr)N=O)cc1,T/C,"endpoint: median survival time, dose: 0.5 mg/kg/injection, schedule: Q01DX009 (ip), vehicle: other, higher = longer survival",101 % of control
same,T/C,"endpoint: median survival time, dose: 1.0 mg/kg/injection, schedule: Q01DX009 (ip), vehicle: other, higher = longer survival",103 % of control
same,T/C,"endpoint: median survival time, dose: 1.6 mg/kg/injection, schedule: Q01DX009 (ip), vehicle: other, higher = longer survival",97 % of control
same,T/C,"endpoint: median survival time, dose: 2.0 mg/kg/injection, schedule: Q01DX009 (ip), vehicle: other, higher = longer survival",106 % of control
same,T/C,[9],97 % of control
same,T/C,"endpoint: median survival time, dose: 6.25 mg/kg/injection, schedule: Q01DX009 (ip), vehicle: other, higher = longer survival",94 % of control and 99 % of control
same,T/C,"endpoint: median survival time, dose: 12.5 mg/kg/injection, schedule: Q01DX009 (ip), vehicle: other, higher = longer survival",95 % of control
same,T/C,"endpoint: median survival time, dose: 25.0 mg/kg/injection, schedule: Q01DX009 (ip), vehicle: other, higher = longer survival",96 % of control
same,T/C,"endpoint: median survival time, dose: 50.0 mg/kg/injection, schedule: Q01DX009 (ip), vehicle: other, higher = longer survival",96 % of control
CC(=O)NNC(=O)c1ccccc1CO,T/C,"endpoint: median survival time, dose: 25.0 mg/kg/injection, schedule: Q01DX009 (ip), vehicle: saline with Tween-80, higher = longer survival",95 % of control
same,T/C,"endpoint: median survival time, dose: 50.0 mg/kg/injection, schedule: Q01DX009 (ip), vehicle: saline with Tween-80, higher = longer survival",95 % of control
same,T/C,"endpoint: median survival time, dose: 100.0 mg/kg/injection, schedule: Q01DX009 (ip), vehicle: saline with Tween-80, higher = longer survival",98 % of control
same,T/C,"endpoint: median survival time, dose: 200.0 mg/kg/injection, schedule: Q01DX009 (ip), vehicle: saline with Tween-80, higher = longer survival",93 % of control
CC(CN1CC(=O)NC(=O)C1)N1CC(=O)NC(=O)C1 (stereo not drawn),T/C,[3],91 % of control
same,T/C,[6],109 % of control
same,T/C,"endpoint: median survival time, dose: 1.9 mg/kg/injection, schedule: Q01DX009 (ip), vehicle: saline, higher = longer survival",112 % of control
same,T/C,"endpoint: median survival time, dose: 3.75 mg/kg/injection, schedule: Q01DX009 (ip), vehicle: saline, higher = longer survival",106 % of control
same,T/C,"endpoint: median survival time, dose: 7.5 mg/kg/injection, schedule: Q01DX009 (ip), vehicle: saline, higher = longer survival",108 % of control
same,T/C,"endpoint: median survival time, dose: 15.0 mg/kg/injection, schedule: Q01DX009 (ip), vehicle: Klucel (hydroxypropylcellulose) (HPC), higher = longer survival",112 % of control
same,T/C,"endpoint: median survival time, dose: 30.0 mg/kg/injection, schedule: Q01DX009 (ip), vehicle: Klucel (hydroxypropylcellulose) (HPC), higher = longer survival",86 % of control
same,T/C,"endpoint: median survival time, dose: 60.0 mg/kg/injection, schedule: Q01DX009 (ip), vehicle: Klucel (hydroxypropylcellulose) (HPC), higher = longer survival",116 % of control
same,T/C,"endpoint: median tumor weight (est.), dose: 13.0 mg/kg/injection, schedule: Q01DX011 (ip), vehicle: saline, higher = larger tumour",57 % of control and 74 % of control
same,T/C,"endpoint: median tumor weight (est.), dose: 20.0 mg/kg/injection, schedule: Q01DX011 (ip), vehicle: saline, higher = larger tumour",58 % of control and 79 % of control
same,T/C,"endpoint: median tumor weight (est.), dose: 30.0 mg/kg/injection, schedule: Q01DX011 (ip), vehicle: saline, higher = larger tumour",68 % of control
